# In patent US20020051978A1, “Methods and compositions for the identification, assessment, prevention and therapy of human cancers” (priority 2000, published 2002):
# Where two headings read alike, the source gives them in different places.
# Experiments:
# [1] = test system: 60 cancer cell lines (NCI 60 cancer cell line series); test: NCI-DTP in vitro cancer screen, sulforhodamine B (SRB) growth inhibition, 48 hour exposure; format: cell-based, human; parameters: key to sensitivity class Ovarian OVCAR-8 CL6005 / sensitivity class Ovarian SK-OV-3 CL6011 / sensitivity class Prostate DU-145 CL11003 / sensitivity class NSCLC NCI-H522 CL1003 / sensitivity class Ovarian IGROV1 CL6010 / sensitivity class Ovarian OVCAR-4 CL6002 / sensitivity class Prostate PC-3(I) CL11001 / sensitivity class Renal A498 CL9013 / sensitivity class Renal SN12C CL9008: sensitivity class: 1 = Low, 2 = Medium, 3 = High
# How it was run: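 Values come from the NCI-DTP screen database: -log GI50, the concentration giving 50% growth inhibition, derived from SRB cell-mass dose-response curves. Each line seeded at its own density, treated day 1 at five ten-fold-spaced doses in duplicate wells, stained after 48 h.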
# [2] = test system: 60 cancer cell lines (NCI 60 cancer cell line series); conditions: cited from earlier work
structure (smiles),measurement,setting,value
O=c1[nH]cc(F)c(=O)[nH]1 [5-Fluorouracil],"classification of cell line as Low(1), Medium(2) or High(3) sensitivity to compound",[1]; Breast BT-549 (CL5013),1
same,"classification of cell line as Low(1), Medium(2) or High(3) sensitivity to compound",[1]; Breast HS-578T CL5006,1
same,"classification of cell line as Low(1), Medium(2) or High(3) sensitivity to compound",[1]; Breast MCF7(I) (CL5001),3
same,"classification of cell line as Low(1), Medium(2) or High(3) sensitivity to compound",[1]; Breast MCF7/ADRr (CL5002),2
same,"classification of cell line as Low(1), Medium(2) or High(3) sensitivity to compound",[1]; Breast MDA-MB-231 CL5005,1
same,"classification of cell line as Low(1), Medium(2) or High(3) sensitivity to compound",[1]; Breast MDA-MB-435 (CL5011),2
same,"classification of cell line as Low(1), Medium(2) or High(3) sensitivity to compound",[1]; Breast MDA-N CL5012,2
same,"classification of cell line as Low(1), Medium(2) or High(3) sensitivity to compound",[1]; Breast T-47D (CL5014),2
same,"classification of cell line as Low(1), Medium(2) or High(3) sensitivity to compound",[1]; CNS SF-268 CL12014,2
same,"classification of cell line as Low(1), Medium(2) or High(3) sensitivity to compound",[1]; CNS SF-295 CL12015,2
same,"classification of cell line as Low(1), Medium(2) or High(3) sensitivity to compound",[1]; CNS SF-539 CL12016,3
same,"classification of cell line as Low(1), Medium(2) or High(3) sensitivity to compound",[1]; CNS SNB-19 (CL12002),1
same,"classification of cell line as Low(1), Medium(2) or High(3) sensitivity to compound",[1]; CNS SNB-75(I) CL12005,1
same,"classification of cell line as Low(1), Medium(2) or High(3) sensitivity to compound",[1]; CNS U251(I) CL12009,2
same,"classification of cell line as Low(1), Medium(2) or High(3) sensitivity to compound",[1]; Colon COLO-250 CL4010,2
same,"classification of cell line as Low(1), Medium(2) or High(3) sensitivity to compound",[1]; Colon HCC-2998 (CL4002),3
same,"classification of cell line as Low(1), Medium(2) or High(3) sensitivity to compound",[1]; Colon HCT-15 CL4015,2
same,"classification of cell line as Low(1), Medium(2) or High(3) sensitivity to compound",[1]; Colon HCT-116 (CL4003),3
same,"classification of cell line as Low(1), Medium(2) or High(3) sensitivity to compound",[1]; Colon HT29(I) CL4001,2
same,"classification of cell line as Low(1), Medium(2) or High(3) sensitivity to compound",[1]; Colon KM12 (CL4017),2
same,"classification of cell line as Low(1), Medium(2) or High(3) sensitivity to compound",[1]; Colon SW-620 (CL4009),2
same,"classification of cell line as Low(1), Medium(2) or High(3) sensitivity to compound",[1]; Leukemia CCRF-CEM(I) (CL7003),2
same,"classification of cell line as Low(1), Medium(2) or High(3) sensitivity to compound",[1]; Leukemia HL-60(I) (CL7008),2
same,"classification of cell line as Low(1), Medium(2) or High(3) sensitivity to compound",[1]; Leukemia K562(I) CL7005,2
same,"classification of cell line as Low(1), Medium(2) or High(3) sensitivity to compound",[1]; Leukemia MOLT-4 (CL7006),2
same,"classification of cell line as Low(1), Medium(2) or High(3) sensitivity to compound",[1]; Leukemia RPMI-8226(I) (CL7010),3
same,"classification of cell line as Low(1), Medium(2) or High(3) sensitivity to compound",[1]; Leukemia SR CL7019,2
same,"classification of cell line as Low(1), Medium(2) or High(3) sensitivity to compound",[1]; Melanoma LOX IMVI CL10001,2
same,"classification of cell line as Low(1), Medium(2) or High(3) sensitivity to compound",[1]; Melanoma M14 (CL10014),2
same,"classification of cell line as Low(1), Medium(2) or High(3) sensitivity to compound",[1]; Melanoma MALME-3M CL10002,2
same,sensitivity class NSCLC NCI-H23(I) CL1001,"[1]; cell line NSCLC NCI-H23(I), CL1001",2
same,sensitivity class NSCLC NCI-H332M CL1017,"[1]; cell line NSCLC NCI-H332M, CL1017",2
same,sensitivity class NSCLC NCI-H460 CL1021,"[1]; cell line NSCLC NCI-H460, CL1021",3
same,sensitivity class NSCLC NCI-H522 CL1003,"[1]; cell line NSCLC NCI-H522, CL1003",2
same,sensitivity class Ovarian IGROV1 CL6010,"[1]; cell line Ovarian IGROV1, CL6010",2
same,sensitivity class Ovarian OVCAR-3 CL6001,"[1]; cell line Ovarian OVCAR-3, CL6001",2
same,sensitivity class Ovarian OVCAR-4 CL6002,"[1]; cell line Ovarian OVCAR-4, CL6002",2
same,sensitivity class Ovarian OVCAR-5 CL6003,"[1]; cell line Ovarian OVCAR-5, CL6003",1
same,sensitivity class Ovarian OVCAR-8 CL6005,"[1]; cell line Ovarian OVCAR-8, CL6005",2
same,sensitivity class Ovarian SK-OV-3 CL6011,"[1]; cell line Ovarian SK-OV-3, CL6011",1
same,sensitivity class Prostate DU-145 CL11003,"[1]; cell line Prostate DU-145, CL11003",2
same,sensitivity class Prostate PC-3(I) CL11001,"[1]; cell line Prostate PC-3(I), CL11001",2
same,sensitivity class Renal 786-O CL9018,"[1]; cell line Renal 786-O, CL9018",2
same,sensitivity class Renal A498 CL9013,"[1]; cell line Renal A498, CL9013",2
same,sensitivity class Renal ACHN CL9023,"[1]; cell line Renal ACHN, CL9023",2
same,sensitivity class Renal CAKI-1 CL9015,"[1]; cell line Renal CAKI-1, CL9015",3
same,sensitivity class Renal RXF-393 CL9016,"[1]; cell line Renal RXF-393, CL9016",2
same,sensitivity class Renal SN12C CL9008,"[1]; cell line Renal SN12C, CL9008",2
same,sensitivity class Renal TK10 CL9024,"[1]; cell line Renal TK10, CL9024",1
same,sensitivity class Renal UO-31 CL9004,"[1]; cell line Renal UO-31, CL9004",2
same,-Log (GI50),[2]; Breast BT-549 (CL5013),4.0
same,-Log (GI50),[2]; Breast HS-578T CL5006,3.7
same,-Log (GI50),[2]; Breast MCF7(I) (CL5001),5.7
same,-Log (GI50),[2]; Breast MCF7/ADRr (CL5002),4.4
same,-Log (GI50),[2]; Breast MDA-MB-231 CL5005,3.4
same,-Log (GI50),[2]; Breast MDA-MB-435 (CL5011),4.9
same,-Log (GI50),[2]; Breast MDA-N CL5012,5.0
same,-Log (GI50),[2]; Breast T-47D (CL5014),4.2
same,-Log (GI50),[2]; CNS SF-268 CL12014,4.3
same,-Log (GI50),[2]; CNS SF-295 CL12015,4.3
same,-Log (GI50),[2]; CNS SF-539 CL12016,6.1
same,-Log (GI50),[2]; CNS SNB-19 (CL12002),3.9
same,-Log (GI50),[2]; CNS SNB-75(I) CL12005,3.8
same,-Log (GI50),[2]; CNS U251(I) CL12009,4.3
same,-Log (GI50),[2]; Colon COLO-250 CL4010,5.2
same,-Log (GI50),[2]; Colon HCC-2998 (CL4002),5.9
same,-Log (GI50),[2]; Colon HCT-15 CL4015,5.2
same,-Log (GI50),[2]; Colon HCT-116 (CL4003),5.4
same,-Log (GI50),[2]; Colon HT29(I) CL4001,5.2
same,-Log (GI50),[2]; Colon KM12 (CL4017),4.9
same,-Log (GI50),[2]; Colon SW-620 (CL4009),4.6
same,-Log (GI50),[2]; Leukemia CCRF-CEM(I) (CL7003),4.5
same,-Log (GI50),[2]; Leukemia HL-60(I) (CL7008),4.9
same,-Log (GI50),[2]; Leukemia K562(I) CL7005,4.8
same,-Log (GI50),[2]; Leukemia MOLT-4 (CL7006),4.9
same,-Log (GI50),[2]; Leukemia RPMI-8226(I) (CL7010),5.3
same,-Log (GI50),[2]; Leukemia SR CL7019,5.2
same,-Log (GI50),[2]; Melanoma LOX IMVI CL10001,5.2
same,-Log (GI50),[2]; Melanoma M14 (CL10014),4.3
same,-Log (GI50),[2]; Melanoma MALME-3M CL10002,4.6
same,-Log (GI50),[2]; NCSLC NCI-H522 CL1003,4.4
same,-Log (GI50),[2]; NSCLC NCI-H23(I) CL1001,5.0
same,-Log (GI50),[2]; NSCLC NCI-H332M CL1017,4.4
same,-Log (GI50),[2]; NSCLC NCI-H460 CL1021,5.9
same,-Log (GI50),[2]; Ovarian IGROV1 CL6010,4.8
same,-Log (GI50),[2]; Ovarian OVCAR-3 CL6001,4.4
same,-Log (GI50),[2]; Ovarian OVCAR-4 CL6002,4.1
same,-Log (GI50),[2]; Ovarian OVCAR-5 CL6003,3.8
same,-Log (GI50),[2]; Ovarian OVCAR-8 CL6005,4.8
same,-Log (GI50),[2]; Ovarian SK-OV-3 CL6011,3.8
same,-Log (GI50),[2]; Prostate DU-145 CL11003,5.1
same,-Log (GI50),[2]; Prostate PC-3(I) CL11001,4.3
same,-Log (GI50),[2]; Renal 786-O CL9018,4.9
same,-Log (GI50),[2]; Renal A498 CL9013,5.0
same,-Log (GI50),[2]; Renal ACHN CL9023,5.0
same,-Log (GI50),[2]; Renal CAKI-1 CL9015,5.3
same,-Log (GI50),[2]; Renal RXF-393 CL9016,4.2
same,-Log (GI50),[2]; Renal SN12C CL9008,4.5
same,-Log (GI50),[2]; Renal TK10 CL9024,3.6
same,-Log (GI50),[2]; Renal UO-31 CL9004,5.2
